According to PubChem BioAssay AID2060335 (Molecular Pharmacology Branch, DTP, NCI, 2025):
pIC50: −log10 of the molar value. Values joined by “and” are separate entries in the source; they are usually repeats but may differ in a detail not shown here. Identical values can stand only once.

System: DU-145 multicell spheroids with HUVEC/MSC, viability
Test: Anticancer human tumor DU-145 cell line growth inhibition [IpAb];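 note: spheroids exposed to agents for seven days before measurement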;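 for viability, T/C: percent of DMSO vehicle control viability so 100% = untreated level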
Details: for viability, T/C: stronger effect = lower value
Procedure, shortened: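 Multi-cell spheroids of 60% tumour cells, 25% HUVEC and 15% MSC in ultra-low-attachment U-bottom wells, treated with agents combined with ipatasertib or abemaciclib. Half-log ranges top out near clinical Cmax, or 10 microM when Cmax is unknown.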

[1] = curve of first compound, second compound 0.1 µM
[2] = curve of first compound, second compound 0.316 µM
[3] = curve of first compound, second compound 1 µM
[4] = curve of first compound, second compound 3.16 µM
[5] = curve of first compound, second compound 10 µM
[6] = second compound 0.1 µM, first compound 0.00949 µM
[7] = second compound 0.1 µM, first compound 0.03 µM
[8] = second compound 0.1 µM, first compound 0.0949 µM
[9] = second compound 0.1 µM, first compound 0.3 µM
[10] = second compound 0.1 µM, first compound 0.949 µM
[11] = second compound 0.1 µM, first compound 3 µM
[12] = second compound 0.316 µM, first compound 0.00949 µM
[13] = second compound 0.316 µM, first compound 0.03 µM
[14] = second compound 0.316 µM, first compound 0.0949 µM
[15] = second compound 0.316 µM, first compound 0.3 µM
[16] = second compound 0.316 µM, first compound 0.949 µM
[17] = second compound 0.316 µM, first compound 3 µM
[18] = second compound 1 µM, first compound 0.00949 µM
[19] = second compound 1 µM, first compound 0.03 µM
[20] = second compound 1 µM, first compound 0.0949 µM
[21] = second compound 1 µM, first compound 0.3 µM
[22] = second compound 1 µM, first compound 0.949 µM
[23] = second compound 1 µM, first compound 3 µM

C=CCn1c(=O)c2cnc(Nc3ccc(N4CCN(C)CC4)cc3)nc2n1-c1cccc(C(C)(C)O)n1 + CC(C)NCC(C(=O)N1CCN(c2ncnc3c2C(C)CC3O)CC1)c1ccc(Cl)cc1
pIC50 [1]: 7.08 | pIC50 [2]: > 7.50 | pIC50 [3]: > 7.50 | pIC50 [4]: > 7.50 | pIC50 [5]: > 7.50 | viability, T/C (second compound 0.1 µM, first compound 0.0316 µM): 71% | viability, T/C (second compound 0.1 µM, first compound 0.1 µM): 47.1% | viability, T/C (second compound 0.1 µM, first compound 0.316 µM): 26.5% | viability, T/C (second compound 0.1 µM, first compound 1 µM): 23.9% | viability, T/C (second compound 0.1 µM, first compound 3.16 µM): 17.5% | viability, T/C (second compound 0.1 µM, first compound 10 µM): 13.7% | viability, T/C (second compound 0.316 µM, first compound 0.0316 µM): 44.6% | viability, T/C (second compound 0.316 µM, first compound 0.1 µM): 36.7% | viability, T/C (second compound 0.316 µM, first compound 0.316 µM): 19.3% | viability, T/C (second compound 0.316 µM, first compound 1 µM): 18.8% | viability, T/C (second compound 0.316 µM, first compound 3.16 µM): 15.8% | viability, T/C (second compound 0.316 µM, first compound 10 µM): 12.9% | viability, T/C (second compound 1 µM, first compound 0.0316 µM): 32.7% | viability, T/C (second compound 1 µM, first compound 0.1 µM): 26.6% | viability, T/C (second compound 1 µM, first compound 0.316 µM): 13.3% | viability, T/C (second compound 1 µM, first compound 1 µM): 15.1% | viability, T/C (second compound 1 µM, first compound 3.16 µM): 14.3% | viability, T/C (second compound 1 µM, first compound 10 µM): 12.6% | viability, T/C (second compound 3.16 µM, first compound 0.0316 µM): 23% | viability, T/C (second compound 3.16 µM, first compound 0.1 µM): 16.1% | viability, T/C (second compound 3.16 µM, first compound 0.316 µM): 10% | viability, T/C (second compound 3.16 µM, first compound 1 µM): 12% | viability, T/C (second compound 3.16 µM, first compound 3.16 µM): 11.8% | viability, T/C (second compound 3.16 µM, first compound 10 µM): 10.4% | viability, T/C (second compound 10 µM, first compound 0.0316 µM): 16.9% | viability, T/C (second compound 10 µM, first compound 0.1 µM): 14% | viability, T/C (second compound 10 µM, first compound 0.316 µM): 8.4% | viability, T/C (second compound 10 µM, first compound 1 µM): 10.6% | viability, T/C (second compound 10 µM, first compound 3.16 µM): 9.3% | viability, T/C (second compound 10 µM, first compound 10 µM): 9.33%

Cn1cnc2c(F)c(Nc3ccc(Br)cc3Cl)c(C(=O)NOCCO)cc21 + CCN1CCN(Cc2ccc(Nc3ncc(F)c(-c4cc(F)c5nc(C)n(C(C)C)c5c4)n3)nc2)CC1
pIC50 (curve of first compound, second compound 0.01 µM): 6.59 | pIC50 (curve of first compound, second compound 0.0316 µM): 6.67 | pIC50 [1]: 6.84 | pIC50 [2]: 6.74 | pIC50 [3]: 7.08 | viability, T/C (second compound 0.01 µM, first compound 0.00949 µM): 80.8% | viability, T/C (second compound 0.01 µM, first compound 0.03 µM): 74.8% | viability, T/C (second compound 0.01 µM, first compound 0.0949 µM): 56.1% | viability, T/C (second compound 0.01 µM, first compound 0.3 µM): 50.7% | viability, T/C (second compound 0.01 µM, first compound 0.949 µM): 42.8% | viability, T/C (second compound 0.01 µM, first compound 3 µM): 38.6% | viability, T/C (second compound 0.0316 µM, first compound 0.00949 µM): 71% | viability, T/C (second compound 0.0316 µM, first compound 0.03 µM): 64.5% | viability, T/C (second compound 0.0316 µM, first compound 0.0949 µM): 53.5% | viability, T/C (second compound 0.0316 µM, first compound 0.3 µM): 46.7% | viability, T/C (second compound 0.0316 µM, first compound 0.949 µM): 44.5% | viability, T/C (second compound 0.0316 µM, first compound 3 µM): 34.4% | viability, T/C [6]: 67.4% | viability, T/C [7]: 57.6% | viability, T/C [8]: 53.8% | viability, T/C [9]: 46.3% | viability, T/C [10]: 39.9% | viability, T/C [11]: 37.1% | viability, T/C [12]: 61.5% | viability, T/C [13]: 56.3% | viability, T/C [14]: 52.8% | viability, T/C [15]: 45.9% | viability, T/C [16]: 47.4% | viability, T/C [17]: 39.2% | viability, T/C [18]: 58.1% | viability, T/C [19]: 54.1% | viability, T/C [20]: 48.8% | viability, T/C [21]: 44.4% | viability, T/C [22]: 42.1% | viability, T/C [23]: 35%

CC(C)(C)c1cnc(CSc2cnc(NC(=O)C3CCNCC3)s2)o1 + CC(C)NCC(C(=O)N1CCN(c2ncnc3c2C(C)CC3O)CC1)c1ccc(Cl)cc1
pIC50 [1]: 6.97 | pIC50 [2]: 7.09 | pIC50 [3]: > 8.02 | pIC50 [4]: > 8.02 | pIC50 [5]: > 8.02 | viability, T/C [6]: 89.1% | viability, T/C [7]: 92% | viability, T/C [8]: 54.7% | viability, T/C [9]: 10% | viability, T/C [10]: 6.37% | viability, T/C [11]: 5.76% | viability, T/C [12]: 60.1% | viability, T/C [13]: 60.2% | viability, T/C [14]: 48.5% | viability, T/C [15]: 8.51% | viability, T/C [16]: 6.34% | viability, T/C [17]: 5.65% | viability, T/C [18]: 33.1% | viability, T/C [19]: 38.5% | viability, T/C [20]: 31.7% | viability, T/C [21]: 7.62% | viability, T/C [22]: 5.87% | viability, T/C [23]: 5.13% | viability, T/C (second compound 3.16 µM, first compound 0.00949 µM): 23.1% | viability, T/C (second compound 3.16 µM, first compound 0.03 µM): 25.1% | viability, T/C (second compound 3.16 µM, first compound 0.0949 µM): 24% | viability, T/C (second compound 3.16 µM, first compound 0.3 µM): 8.35% | viability, T/C (second compound 3.16 µM, first compound 0.949 µM): 5.85% | viability, T/C (second compound 3.16 µM, first compound 3 µM): 5.4% | viability, T/C (second compound 10 µM, first compound 0.00949 µM): 18.1% | viability, T/C (second compound 10 µM, first compound 0.03 µM): 21.6% | viability, T/C (second compound 10 µM, first compound 0.0949 µM): 15.7% | viability, T/C (second compound 10 µM, first compound 0.3 µM): 6.3% | viability, T/C (second compound 10 µM, first compound 0.949 µM): 5.1% | viability, T/C (second compound 10 µM, first compound 3 µM): 4.5%

CCCS(=O)(=O)Nc1ccc(F)c(C(=O)c2c[nH]c3ncc(-c4ccc(Cl)cc4)cc23)c1F
viability, T/C (compound 0.0316 µM): 112% and 110% | viability, T/C (compound 0.1 µM): 108% and 114% | viability, T/C (compound 0.316 µM): 110% and 116% | viability, T/C (compound 1 µM): 115% and 118% | viability, T/C (compound 3.16 µM): 109% and 113% | viability, T/C (compound 10 µM): 79.7% and 82.9% | pIC50 (curve of compound): < 5.00
